According to patent US20260378560A1, “APPROACHES TO DESIGNING AND PERFORMING COMPRESSED BIOLOGICAL EXPERIMENTS AND SYSTEMS FOR IMPLEMENTING THE SAME” (EXVIVO LABS INC., priority 2023, published 2026):

Columns and labels:
MOLT-4 [1] = experiment: Cell viability (CellTiter Glo), compressed perturbation pools with informed pool design, MAX-based deconvolution, MOLT-4; details: for DRS: MOLT-4, None (measured individually), informed pool design table; for DRS from MAX-based deconvolution: MOLT-4, Samples, 7 Pick 3 informed perturbation pools;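 on all read-outs here: higher DRS means a larger drug effect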
Method: (§1) Total cell viability was measured for each sample using an ATP-based luminescence assay (i.e., CellTiter Glo). Each cancer drug was then screened at multiple concentrations ranging from one nM to ten μM in order to generate a dose-response curve and calculate a DRS for each cancer cell line.
(§2) Each cancer drug was cultured with target cells individually. At the end of the screen, samples were either analyzed individually or compressed into pools for analysis. The library was compressed alphabetically into ten cohorts, each of which contained seven cancer drugs present in three out of the seven pools, as shown in Table VII. Said another way, the screening platform 210 generated a “7 pick 3” compressed library by assigning the cancer drugs among different pools. […] The library was also compressed into ten cohorts with pools designed based on information known about each cancer drug, as shown in Table VIII. After cell viability measurement and DRS calculation, the DRS of each cancer drug in the samples generated based on the pools were deconvoluted and compared to the DRS for each cancer drug measured individually.
(§3) In parallel to the exemplary sample compression screen covered in Table VII, perturbations were compressed into pools and then screened. The pools were designed using drug class as a feature with two compression rules (or simply “rules”). The first rule required that drugs from the same class be separated into different cohorts (i.e., mutually exclusive groups of pools). […] A benefit of compressing perturbations is the ability to measure additive, antagonistic, and synergistic effects between drugs in the same pool. However, these effects can negatively impact deconvolution of individual drug effects. Therefore, combinations of drugs for which evidence of clinical toxicity exists can be assigned to different pools in accordance with an informed pooling operation. As new preclinical or clinical evidence of toxic combinations becomes available, the rules implemented by the screening platform 210—and more specifically, its algorithm for compressing members of a library—can be updated accordingly.
(§4) In MAX-based deconvolution, an assumption of neutrality between the compressed perturbations is made. In other words, the perturbation with the largest effect is assumed to be masking the effects, if any, of the other perturbations in the pool. For SUM- and MAX-based deconvolution, qualitative deconvolution is first performed to rank the perturbations in each pool based on size of expected effect. Qualitative deconvolution, as described above, ranks the perturbations in a pool from largest effect size to smallest effect size. The ranking is based on the overlap of each perturbation's unique subset of pools with the highest and lowest measured pools. The perturbation with the largest effect is expected to be present in the pools with the highest measured signal or corresponding metric (e.g., DRS), while the perturbation with the smallest effect is expected to be present in the pools with the lowest measured signal or corresponding metric (e.g., DRS).
(§5) For MAX-based deconvolution, the highest ranked perturbation in the rank order is first assigned an effect size based on the pool with the lowest measured signal or corresponding metric (e.g., DRS) that it is present in. Said another way, the screening platform 210 can identify the highest ranked perturbation in the rank order and then assign an effect size based on the measured signal or corresponding metric (e.g., DRS) of the “weakest” pool in which the highest ranked perturbation is included. The screening platform 210 can repeat this step for the next highest ranked perturbation, and so on until the measurements for each pool have been assigned to one of the perturbations. The effects for the remaining perturbations can be assigned a value of zero, since it is assumed that their effect is masked by the perturbation with the largest effect in each pool.

MOLT-4 [2] = experiment: Cell viability (CellTiter Glo), library of cancer drugs, individual or sample compression with randomized (alphabetical) pools, MOLT-4; assay type: cell-based; details: for DRS: MOLT-4, None (measured individually); for DRS from deconvolution: MOLT-4, Samples, 7 Pick 3 randomized (alphabetical) sample pools
Method: as §1, §2
(§6) In SUM-based deconvolution, an assumption of additivity is used to quantify the individual effects of each perturbation on each target. Additivity implies that each perturbation effect on each target is positively contributing to the overall effect measured for that pool. This is an accurate assumption for certain experiments, such as when targets or samples are compressed. When targets are pooled—or when samples containing different targets are pooled—the effect of each perturbation on each individual target is diluted. In other words, each perturbation has an isolated effect on a target in culture, and the sum total of the isolated effects are measured when pooled. Therefore, SUM-based deconvolution breaks down the sum total measured for a pool and assigns estimated fractional effects to each compressed perturbation or target in the pool. The screening platform 210 used SUM-based deconvolution for all target and sample compression experiments described above.

REH [3] = experiment: Cell viability (CellTiter Glo), library of cancer drugs, individual or sample compression with randomized (alphabetical) pools, REH; assay type: cell-based; details: REH; for DRS: None (measured individually); for DRS from deconvolution: Samples, 7 Pick 3 randomized (alphabetical) sample pools
Method: as §1, §2, §6

REH [4] = experiment: Cell viability (CellTiter Glo), compressed perturbation pools with informed pool design, MAX-based deconvolution, REH; details: REH; for DRS: None (measured individually), informed pool design table; for DRS from MAX-based deconvolution: Samples, 7 Pick 3 informed perturbation pools;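 on all read-outs here: higher DRS means a larger drug effect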
Method: as §1, §2, §3, §4, §5

CCN(CC)CCNC(=O)c1c(C)[nH]c(/C=C2\C(=O)Nc3ccc(F)cc32)c1C [Sunitinib]
DRS (MOLT-4 [1]): 2.60
DRS from MAX-based deconvolution (MOLT-4 [1]): 0.00
DRS (MOLT-4 [2]): 0.56
DRS from deconvolution (MOLT-4 [2]): 0.50
DRS (REH [3]): 0.06
DRS from deconvolution (REH [3]): 0.00
DRS (REH [4]): 3.10
DRS from MAX-based deconvolution (REH [4]): 0.00

CC/C(=C(\c1ccccc1)c1ccc(OCCN(C)C)cc1)c1ccccc1 [Tamoxifen]
DRS (MOLT-4 [1]): 0.74
DRS from MAX-based deconvolution (MOLT-4 [1]): 0.00
DRS (MOLT-4 [2]): 1.12
DRS from deconvolution (MOLT-4 [2]): 1.09
DRS (REH [3]): 3.12
DRS from deconvolution (REH [3]): 3.01
DRS (REH [4]): 0.14
DRS from MAX-based deconvolution (REH [4]): 0.00

C[C@@H]1CCN(C(=O)CC#N)C[C@@H]1N(C)c1ncnc2[nH]ccc12 [Tofacitinib]
DRS (MOLT-4 [1]): 2.96
DRS from MAX-based deconvolution (MOLT-4 [1]): 0.00
DRS (MOLT-4 [2]): 0.00
DRS from deconvolution (MOLT-4 [2]): 0.00
DRS (REH [3]): 0.20
DRS from deconvolution (REH [3]): 0.00
DRS (REH [4]): 3.15
DRS from MAX-based deconvolution (REH [4]): 4.06

CC(=O)Nc1cccc(-n2c(=O)n(C3CC3)c(=O)c3c(Nc4ccc(I)cc4F)n(C)c(=O)c(C)c32)c1 [Trametinib]
DRS (MOLT-4 [1]): 24.71
DRS from MAX-based deconvolution (MOLT-4 [1]): 24.91
DRS (MOLT-4 [2]): 0.00
DRS from deconvolution (MOLT-4 [2]): 0.00
DRS (REH [3]): 0.00
DRS from deconvolution (REH [3]): 0.00
DRS (REH [4]): 21.81
DRS from MAX-based deconvolution (REH [4]): 23.72

Cc1cc(Nc2ncnc3ccc(NC4=NC(C)(C)CO4)cc23)ccc1Oc1ccn2ncnc2c1 [Tucatinib]
DRS (MOLT-4 [1]): 0.80
DRS from MAX-based deconvolution (MOLT-4 [1]): 0.00
DRS (MOLT-4 [2]): 0.00
DRS from deconvolution (MOLT-4 [2]): 0.00
DRS (REH [3]): 0.30
DRS from deconvolution (REH [3]): 0.21
DRS (REH [4]): 0.91
DRS from MAX-based deconvolution (REH [4]): 0.00

Nc1cc(F)ccc1NC(=O)c1ccc(CNC(=O)/C=C/c2cccnc2)cc1 [Tucidinostat]
DRS (MOLT-4 [1]): 0.50
DRS from MAX-based deconvolution (MOLT-4 [1]): 0.00
DRS (MOLT-4 [2]): 6.77
DRS from deconvolution (MOLT-4 [2]): 7.95
DRS (REH [3]): 10.87
DRS from deconvolution (REH [3]): 11.23
DRS (REH [4]): 2.40
DRS from MAX-based deconvolution (REH [4]): 0.00

COc1cc2c(Nc3ccc(Br)cc3F)ncnc2cc1OCC1CCN(C)CC1 [Vandetanib]
DRS (MOLT-4 [1]): 2.19
DRS from MAX-based deconvolution (MOLT-4 [1]): 2.51
DRS (MOLT-4 [2]): 3.01
DRS from deconvolution (MOLT-4 [2]): 3.12
DRS (REH [3]): 3.01
DRS from deconvolution (REH [3]): 2.79
DRS (REH [4]): 7.39
DRS from MAX-based deconvolution (REH [4]): 9.02

CS(=O)(=O)c1ccc(C(=O)Nc2ccc(Cl)c(-c3ccccn3)c2)c(Cl)c1 [Vismodegib]
DRS (MOLT-4 [1]): 4.08
DRS from MAX-based deconvolution (MOLT-4 [1]): 4.35
DRS (MOLT-4 [2]): 0.70
DRS from deconvolution (MOLT-4 [2]): 0.56
DRS (REH [3]): 0.00
DRS from deconvolution (REH [3]): 0.00
DRS (REH [4]): 2.58
DRS from MAX-based deconvolution (REH [4]): 3.06

O=C(CCCCCCC(=O)Nc1ccccc1)NO [Vorinostat]
DRS (MOLT-4 [1]): 1.84
DRS from MAX-based deconvolution (MOLT-4 [1]): 0.00
DRS (MOLT-4 [2]): 13.42
DRS from deconvolution (MOLT-4 [2]): 13.67
DRS (REH [3]): 12.12
DRS from deconvolution (REH [3]): 12.11
DRS (REH [4]): 2.01
DRS from MAX-based deconvolution (REH [4]): 0.00
